Measured values as given in publication PMC13195669, “GPR3 Ligands Discovered through Combined Virtual and Conformational Biosensor-Based Screening” (Journal of the American Chemical Society, 2026).

Target: T1, GPR3 (Homo sapiens, UniProt P46089, INS231ASEIGTGFPFDPHYVEVLGERMHYVDVGPRDGTPVLFLHGNPTSSYVWRNIIPHVAPTHRCIAPDLIGMGKSDKPDLGYFFDDHVRFMDAFIEALGLEEVVLVIHDWGSALGFHWAKRNPERVKGIAFMEFIRPIPTWDEWPEFARETFQAFRTTDVGRKLIIDQNVFIEGTLPMGVVRPLTEVEMDHYREPFLNPVDREPLWRFPNELPIAGEPANIVALVEEYMDWLHQSPVPKLLFWGTPGVLIPPAEAARLAKSLPNCKAVDIGPGLNLLQEDNPDLIGSEIARWLSTLEISGGS)
T1 construct: ligated to the full-length C-terminus; expressed in transfected cells; some experiments transient
Assay: BRET-based conformational GPR3 biosensor (GPR3-HaloTag/Nluc) in HEK293A cells
Format: cell-based
Conditions: for EC50: HEK293A cells stably expressing the biosensor, read-out: EC50 at GPR3-HaloTag/Nluc
Excerpt: To develop a conformational GPR3 biosensor that can be used in a microtiter well plate format, we employed the intramolecular BRET design previously validated for several GPCRs. − The BRET donor NanoLuc was fused to the receptor’s full-length C-terminus and the self-labeling protein tag, HaloTag, was inserted into GPR3′s third intracellular loop between amino acids Arg231 and His232 (Figure a; sequence in Figure S1). […]
Plasmids and molecular cloning […]
Plasmids encoding the conformational biosensors α2AAR- and β2AR-HaloTag/Nluc9 and the Gs heterotrimer dissociation sensor10 were previously described. The expression plasmid encoding N-terminally HA-tagged GPR3 (cat. no.
#GPR003TN00) on a pcDNA3.1+ vector was obtained from the cDNA resource center (cdna.org). The Nluc and HaloTag in-serts were amplified with overhanging restriction sites from β2AAR- HaloTag/Nluc and ligated to the full-length C-terminus or inserted into icl3 of GPR3, respectively, to obtain the conformational biosensor GPR3-HaloTag/Nluc. Point mutants of GPR3-HaloTag/Nluc were generated using the GeneArt Site-directed Mutagenesis System (Thermo Fisher Scientific). All con-structs were verified by sequencing (Eurofins genomics). […]
serum albumin (BSA) were obtained from Sigma Aldrich (Merck KGaA). Dulbecco's Modified Eagle's Medium (DMEM), Dul- […]
Diphenyleneiodonium chloride (DPI) and AF64394 were purchased from Tocris (Bio -Techne). The TMB (3, 3', 5, 5' tetramethyl benzidine) substrate reagent set was […]
were obtained in a single kit from Promega (cat. no. N1662). D-luciferin-sodium and the S1PR1 agonist III were from Med-ChemExpress. The Rluc substrate coelenterazine 400a was from NanoLight Technology (cat. no. 340 -10). White -wall, white - bottomed 96 -well, black -wall, black bottomed and transparent 96 -well microtiter plates were from Brand.
HEK293A cells were used for transient transfection and grown in Dulbecco’s modified Eagle’s medium (DMEM) supplemented with 2 mM glutamine, 10 % fetal calf serum, streptomycin (0.1 mg/mL), and penicillin (100 U/mL) at 37 °C with 5 % CO2. For the generation of stable GPR3 -HaloTag/Nluc cells, HEK293A cells grown in T75 flasks were transfected at a confluence of 40 – […]
Absence of mycoplasma contamination was routinely
Transient transfection and plating
Resuspended cells (300,000 cells/mL) were transfected in suspension with a total of 1 μg DNA/mL suspension using PEI (1 mg/ml stock solution; 3 μL PEI solution per μg DNA). […]
Cells mixed with the transfection reagents were seeded onto poly-D-lysine–precoated, 96-well plates and grown for 48 h at 37 °C with 5 % CO2. Stable α2AAR-, β2AR- or GPR3-HaloTag/Nluc expressing cells were seeded 24 h before the experi-ment at a density of 800,000 cells/mL into white 96-well plates. To monitor changes in BRET in with conformational GPCR […]
experiment. White plates were used for BRET and luminescence measurements, black plates for FRET experiments and trans-parent plates for absorbance-based quantification of receptor surface expression levels.

T1 sequence (P46089 with tags, fused parts or gaps with the stated changes): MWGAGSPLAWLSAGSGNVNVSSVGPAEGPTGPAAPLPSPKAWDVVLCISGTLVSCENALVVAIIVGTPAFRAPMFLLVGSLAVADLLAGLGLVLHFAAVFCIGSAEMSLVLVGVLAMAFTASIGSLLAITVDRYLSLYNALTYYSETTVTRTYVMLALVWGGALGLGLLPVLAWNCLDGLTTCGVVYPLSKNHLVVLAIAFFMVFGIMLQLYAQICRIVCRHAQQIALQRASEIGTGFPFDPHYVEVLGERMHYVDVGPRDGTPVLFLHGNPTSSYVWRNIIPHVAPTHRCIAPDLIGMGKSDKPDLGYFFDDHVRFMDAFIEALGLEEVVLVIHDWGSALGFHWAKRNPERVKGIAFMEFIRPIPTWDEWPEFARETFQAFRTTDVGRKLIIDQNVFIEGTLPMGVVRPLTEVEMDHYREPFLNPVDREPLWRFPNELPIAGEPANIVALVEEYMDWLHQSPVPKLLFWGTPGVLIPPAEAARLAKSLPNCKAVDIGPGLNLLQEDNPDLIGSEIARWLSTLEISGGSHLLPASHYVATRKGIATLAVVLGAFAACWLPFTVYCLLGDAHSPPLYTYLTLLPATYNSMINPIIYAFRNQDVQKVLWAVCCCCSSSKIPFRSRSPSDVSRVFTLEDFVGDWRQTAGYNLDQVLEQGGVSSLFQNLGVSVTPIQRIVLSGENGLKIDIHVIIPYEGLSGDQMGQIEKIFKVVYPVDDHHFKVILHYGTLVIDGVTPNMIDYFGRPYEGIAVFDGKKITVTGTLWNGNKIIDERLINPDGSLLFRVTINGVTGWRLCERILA

Compound | effect of preincubation on OEA and oleamide potency in GPR3 conformation assay (30 µM preincubation) | EC50 [µM]
N=c1n(Cc2ccccc2)c2ccccc2n1CC1CC1 [compound 33] | reduced potency of OEA, but not oleamide | 5
Cc1ccc(NC(=O)CN2CCN(C(=O)CCc3ccc(Cl)cc3)CC2)cc1 [compound 115] | – | 85
N=c1n(Cc2ccccc2)c2ccccc2n1CC(O)COc1ccc(Cl)cc1 (stereo not shown) [compound 52] | – | 25
